Common to all, as to assay type: cell-based
The subject of data set [1] is human epithelial HeLa cells. Kind of data set: HeLa cytotoxicity assay (CellTiter-Glo). Particulars: pCC50. Put shortly: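 Read-out is CellTiter-Glo luminescence after 2 days at 37 °C, on IFN-γ-stimulated (10 nM) HeLa cells seeded at 5,000/well with compounds in 11-point 3-fold dose series. pCC50 from four-parameter curve fit; wells without cells set 100% cytotoxicity, stimulated cells with DMSO set 0%.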
On the technique in general: Cellular ATP, detected with luciferase, serves as a proxy for viable cell number.

Data set [2] has as its target T1, indoleamine 2, 3-dioxygenase (IDO1) (Homo sapiens, UniProt P14902). The data set is described as follows: IDO1 HeLa RapidFire MS assay (kynurenine detection by mass spectrometry). More on the design: to induce the expression of indoleamine 2, 3-dioxygenase (IDO1). Particulars: HeLa cells, pIC50, read-out: IDO1_HELA_PXC50 (converted). The gist of the method: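 Compound potency reported as pIC50 from kynurenine/internal-standard ratio (RapidFire MS) in supernatant of IFN-γ-induced (10 nM) HeLa cells, 5,000 per well, after 2 days' treatment with 11-point dilutions. Cytotoxicity in the same format by luminescent ATP detection, reported as pCC50.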

For data set [3], the system named is human peripheral blood mononuclear cells (PBMC). The data set is described as follows: PBMC cytotoxicity assay (CellTiter-Glo). Particulars: 2 days, pCC50. The gist of the method: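 % cytotoxicity was taken from CellTiter-Glo luminescence, using wells without cells and stimulated DMSO wells as references, and fitted by four-parameter curve to give XC50. Cells were human PBMC at 50,000 per well, activated with 100 ng/ml IFN-γ plus 50 ng/ml LPS. Incubation with 11-point, 3-fold dilution series ran for 2 days at 37 °C.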

For data set [4], the target named is T1, indoleamine 2, 3-dioxygenase (IDO1). Kind of data set: IDO1 PBMC RapidFire MS assay (kynurenine detection by mass spectrometry). Further details: to induce the expression of indoleamine 2, 3-dioxygenase (IDO1); host or cells: human PBMC stimulated with IFN-gamma and LPS. Particulars: human PBMC stimulated with IFN-γ and LPS, 2 days, pIC50, read-out: PBMC PXC50 (converted). The gist of the method:
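Kynurenine output, read by RapidFire mass spectrometry as ratio to an internal standard, was measured after 2-day compound exposure (11-point, 3-fold dilutions) of human PBMCs induced with 100 ng/ml IFN-γ and 50 ng/ml LPS. Cell viability tracked alongside via ATP luminescence; XC50 from curve fitting.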

Each structure is given as a SMILES string.

T1 sequence (P14902 whole entry): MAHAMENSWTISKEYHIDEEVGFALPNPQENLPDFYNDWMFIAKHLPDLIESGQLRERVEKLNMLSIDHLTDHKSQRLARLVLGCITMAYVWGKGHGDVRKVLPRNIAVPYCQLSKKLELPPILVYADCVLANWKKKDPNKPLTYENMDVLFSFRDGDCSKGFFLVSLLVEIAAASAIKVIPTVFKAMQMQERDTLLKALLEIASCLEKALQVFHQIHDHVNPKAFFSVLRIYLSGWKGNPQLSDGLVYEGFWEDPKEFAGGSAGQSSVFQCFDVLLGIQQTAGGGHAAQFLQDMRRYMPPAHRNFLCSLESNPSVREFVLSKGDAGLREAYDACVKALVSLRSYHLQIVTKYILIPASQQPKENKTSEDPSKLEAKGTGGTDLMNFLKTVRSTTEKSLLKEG

With `CC(C)CN(CC(C)C)c1ccc(C(C)CC(=O)O)cc1Nc1nc2ccccc2n1C` (stereo not shown) [example 119, 3-{4-[bis(2-methylpropyl)amino]-3-[(1-methyl-1H-1,3-benzodiazol-2-yl)amino]phenyl}butanoic acid], the HELA_IDO1_TOX_PXC50 in data set [1] is given as under 4.3. For the same compound, the IC50 in data set [2] was 1.26 µM. The “PBMC TOX PXC50” value in data set [3] is under 4.3.
In data set [1], `CC(C)CN(CC(C)C)c1ccc(C(C)CC(=O)O)cc1Nc1nc(N2CCOCC2)ns1.O=C(O)C(F)(F)F` (stereo not shown) [example 117, 3-{4-[bis(2-methylpropyl)amino]-3-{[3-(morpholin-4-yl)-1,2,4-thiadiazol-5-yl]amino}phenyl}butanoic acid] displayed an HELA_IDO1_TOX_PXC50 of under 4.3. For the same compound, the IC50 in data set [2] is 3.98 µM. Moreover, the “PBMC TOX PXC50” value in data set [3] is on record as under 4.3.
On to `CC(C)CN(CC(C)C)c1ccc(C(C)CC(=O)O)cc1Nc1c(Nc2ccccc2)c(=O)c1=O` (stereo not shown) [example 124, 3-{4-[bis(2-methylpropyl)amino]-3-{(3,4-dioxo-2-(phenylamino)cyclobut-1-en-1-yl]amino}phenyl}butanoic acid], for which the HELA_IDO1_TOX_PXC50 in data set [1] is given as under 4.3. Also, the IC50 in data set [2] is 12.6 µM.
Consider `CC(C)CN(CC(C)C)c1ccc(C(C)CC(=O)O)cc1Nc1nc(N2CCCC2)ns1.O=C(O)C(F)(F)F` (stereo not shown) [example 118, 3-{4-[bis(2-methylpropyl)amino]-3-{[3-(pyrrolidin-1-yl)-1,2,4-thiadiazol-5-yl]amino}phenyl}butanoic acid], for which the HELA_IDO1_TOX_PXC50 in data set [1] is listed as under 4.3. The IC50 in data set [2] was 5.01 µM. The “PBMC TOX PXC50” value in data set [3] is on record as under 4.3.
For `CC(C)CN(CC(C)C)c1ccc(C(C)CC(=O)O)cc1Nc1nc(C(C)(C)C)cs1` (stereo not shown) [example 133, 3-{4-[bis(2-methylpropyl)amino]-3-[(4-tert-butyl-1,3-thiazol-2-yl)amino]phenyl}butanoic acid], the HELA_IDO1_TOX_PXC50 in data set [1] turned out to be 4.5. In data set [2], the IC50 was 3.98 µM.
The matching figures for `COc1ccnc(Nc2cc(C(C)CC(=O)O)ccc2N(CC(C)C)CC(C)C)n1.O=C(O)C(F)(F)F` (stereo not shown) [example 127, 3-{4-[bis(2-methylpropyl)amino]-3-[(4-methoxypyrimidin-2-yl)amino]phenyl}butanoic acid]: under 4.3 and 2.51 µM.
With `CC(C)CN(c1ccc([C@H](C)CC(=O)O)cc1NC(C)CCO)C1CCCCC1` (stereo partly drawn) [example 185, (3R)-3-{4-[cyclohexyl(2-methylpropyl)amino]-3-[(4-hydroxybutan-2-yl)amino]phenyl}butanoic acid], the HELA_IDO1_TOX_PXC50 in data set [1] is reported as under 5. Besides, in data set [2], the IC50 was 1.58 µM.
The corresponding values for `CC(C)CN(CC(C)C)c1ccc(C(C)CC(=O)O)cc1Nc1nc(-c2ccccc2)cs1` (stereo not shown) [example 128, 3-{4-[bis(2-methylpropyl)amino]-3-[(4-phenyl-1,3-thiazol-2-yl)amino]phenyl}butanoic acid] are 4.4 and 2.51 µM.
In data set [1], `CC(C)CN(CC(C)C)c1ccc(C(C)CC(=O)O)cc1Nc1nnc(C2CC2)o1.O=C(O)C(F)(F)F` (stereo not shown) [example 126, 3-{4-[bis(2-methylpropyl)amino]-3-[(5-cyclopropyl-1,3,4-oxadiazol-2-yl)amino]phenyl}butanoic acid] returned an HELA_IDO1_TOX_PXC50 of under 4.3. In data set [2], the IC50 is 0.631 µM.
`CC(C)CN(c1ccc(C2CC2C(=O)O)cc1Nc1nc(C(F)(F)F)ns1)C1CCCCC1` (single isomer, unassigned) [Example 105, 2-(4-(cyclohexyl(isobutyl)amino)-3-((3-(trifluoromethyl)-1,2,4-thiadiazol-5-yl)amino)phenyl)cyclopropanecarboxylic Acid] showed an HELA_IDO1_TOX_PXC50 in data set [1] of under 5. Moreover, the IC50 in data set [2] was 0.00631 µM; in data set [4], 0.00316 µM.
For `CC(C)CN(CC(C)C)c1ccc(C(C)CC(=O)O)cc1Nc1nc(-c2ccncc2)cs1` (stereo not shown) [example 130, 3-{4-[bis(2-methylpropyl)amino]-3-{[4-(pyridin-4-yl)-1,3-thiazol-2-yl]amino]phenyl}butanoic acid], in data set [1], the HELA_IDO1_TOX_PXC50 is reported as under 4.3. Further, in data set [2], the IC50 was 1.58 µM.
In data set [1], `CC(C)CN(c1ccc(-c2ncccc2C(=O)O)cc1Nc1nc2ccccc2o1)C1CCCCC1` [example 292, 2-{3-[(1,3-benzoxazol-2-yl)amino]-4-[cyclohexyl(2-methylpropyl)amino]phenyl}pyridine-3-carboxylic acid] gave an HELA_IDO1_TOX_PXC50 of under 5. Further, the IC50 in data set [2] was 0.794 µM.
The corresponding values for `CC(C)CN(c1ccc(-c2ccccc2C(=O)O)cc1Nc1nc(C(F)(F)F)ns1)C1CCN(C)CC1` [example 274, 4′-[(1-methylpiperidin-4-yl)(2-methylpropyl)amino]-3′-{[3-(trifluoromethyl)-1,2,4-thiadiazol-5-yl]amino}-[1,1′-biphenyl]-2-carboxylic acid] are under 5 and 1 µM.
Consider `CC(C)CN(CC(C)C)c1ccc(C(C)CC(=O)O)cc1Nc1nnc(N)s1` (stereo not shown) [example 208, 3-{3-[(5-amino-1,3,4-thiadiazol-2-yl)amino]-4-[bis(2-methylpropyl)amino]phenyl}butanoic acid], for which the HELA_IDO1_TOX_PXC50 in data set [1] is recorded as under 5. Also, the IC50 in data set [2] was 1.58 µM.
The corresponding values for `CC(C)CN(c1ccc(C(C)CC(=O)O)cc1Nc1nc2ccccn2n1)C1CCCCC1` (stereo not shown) [example 145, 3-{4-[cyclohexyl(2-methylpropyl)amino]-3-({[1,2,4]triazolo[1,5-a]pyridin-2-yl)amino)phenyl}butanoic acid] are under 5 and 0.794 µM.
The matching figures for `CC(C)CN(CC(C)C)c1ccc(C(C)CC(=O)O)cc1Nc1nc(C2CCOCC2)cs1` (stereo not shown) [example 138, 3-{4-[bis(2-methylpropyl)amino]-3-{[4-(oxan-4-yl)-1,3-thiazol-2-yl]amino}phenyl}butanoic acid]: under 4.3 and 5.01 µM.
The corresponding values for `COCCN(c1ccc(-c2ccccc2C(=O)O)cc1Nc1nc2ccccc2[nH]1)C1CCCCC1` [example 285, 3′-[(1H-1,3-benzodiazol-2-yl)amino]-4′-[cyclohexyl(2-methoxyethyl)amino]-[1,1′-biphenyl]-2-carboxylic acid] are under 5 and 0.794 µM.
`CC(C)CN(CC(C)C)c1ccc(C(C)CC(=O)O)cc1Nc1nc(N2CCN(C)CC2)ns1` (stereo not shown) [example 116, 3-{4-[bis(2-methylpropyl)amino]-3-{[3-(4-methylpiperazin-1-yl)-1,2,4-thiadiazol-5-yl]amino}phenyl}butanoic acid] returned an HELA_IDO1_TOX_PXC50 in data set [1] of under 4.3. Moreover, in data set [2], the IC50 was 39.8 µM. Besides, the “PBMC TOX PXC50” value in data set [3] is under 4.3.
`CC(C)CN(CC(C)C)c1ccc(C(C)CC(=O)O)cc1Nc1nc2c(s1)CCCC2` (stereo not shown) [example 131, 3-{4-[bis(2-methylpropyl)amino]-3-[(4,5,6,7-tetrahydro-1,3-benzothiazol-2-yl)amino]phenyl}butanoic acid]: in data set [1], the HELA_IDO1_TOX_PXC50 worked out at 4.7. The IC50 in data set [2] was 0.631 µM.
For `CC(C)CN(c1ccc(C(C)CC(=O)O)cc1Nc1nc(Cl)ns1)C1COC1` (stereo not shown) [example 205, 3-{3-[(3-chloro-1,2,4-thiadiazol-5-yl)amino]-4-[{2-methylpropyl)(oxetan-3-yl)amino]phenyl}butanoic acid], the HELA_IDO1_TOX_PXC50 in data set [1] is given as under 5. Further, the IC50 in data set [2] was over 10 µM.
For `CC(C)CN(CC(C)C)c1ccc([C@@H]2C[C@@H]2C(=O)O)cc1Nc1nc(C(F)(F)F)ns1` (single isomer, unassigned) [example 206], the HELA_IDO1_TOX_PXC50 in data set [1] is recorded as under 5. Further, in data set [2], the IC50 is 0.0316 µM.
The matching figures for `CC(C)CN(c1ccc(-c2ccccc2C(=O)O)cc1NCCC#N)C1CCCCC1` [example 277, 3′-[(2-cyanoethyl)amino]-4′-[cyclohexyl(2-methylpropyl)amino]-[1,1′-biphenyl]-2-carboxylic acid]: under 5 and 0.316 µM.
The corresponding values for `CC(C)CN(CC(C)C)c1ccc(C(C)CC(=O)O)cc1Nc1ncc(-c2ccccc2)o1` (stereo not shown) [example 121, 3-{4-[bis(2-methylpropyl)amino]-3-[(5-phenyl-1,3-oxazol-2-yl)amino]phenyl}butanoic acid] are 4.4 and 7.94 µM.
The matching figures for `CC(C)CN(CC(C)C)c1ccc(C(C)CC(=O)O)cc1NCc1noc(C2CC2)n1` (stereo not shown) [example 147, 3-{4-[bis(2-methylpropyl)amino]-3-{[(5-cyclopropyl-1,2,4-oxadiazol-3-yl)methyl]amino}phenyl} butanoic acid]: under 5 and over 10 µM.
`CC(C)CN(CC(C)C)c1ccc(C(C)CC(=O)O)cc1Nc1ccccc1` (stereo not shown) [example 142, 3-{4-[bis(2-methylpropyl)amino]-3-(phenylamino)phenyl} butanoic acid] displayed an HELA_IDO1_TOX_PXC50 in data set [1] of under 5. For the same compound, in data set [2], the IC50 was 0.158 µM.

Values taken from patent publication US10899754B2, “Modulators of indoleamine 2,3-dioxygenase” (GLAXOSMITHKLINE INTELLECTUAL PROPERTY DEVELOPMENT LIMITED, priority 2016, dated 2021).
